Source: the NIST ThermoML archive (doi:10.1021/je200637v)
Numbers after ± are expanded uncertainties.

Experiment: activity coefficient (dimensionless); of the first substance listed, at infinite dilution; xn = mol fraction of the nth substance listed
Details: Liquid, Chromatography, x1 = 0

| SMILES | activity coefficient (322.85 K) | activity coefficient (332.65 K) | activity coefficient (343.15 K) |
| --- | --- | --- | --- |
| CCCO [propan-1-ol] + CCCCCCCC[N+](CCCCCCCC)(CCCCCCCC)CCCCCCCC.O=S(=O)([N-]S(=O)(=O)C(F)(F)F)C(F)(F)F | 1.22 ± 0.04 | 1.14 ± 0.03 | 1.04 ± 0.03 |
| c1ccncc1 [pyridine] + CCCCCCCCCC[N+](C)(C)C.O=S(=O)([N-]S(=O)(=O)C(F)(F)F)C(F)(F)F | 0.46 ± 0.03 | 0.47 ± 0.03 | 0.47 ± 0.03 |
| C1CCCCC1 [cyclohexane] + CCCC[N+](C)(CCCC)CCCC.O=S(=O)([N-]S(=O)(=O)C(F)(F)F)C(F)(F)F | 4.74 ± 0.22 | 4.71 ± 0.21 | 4.44 ± 0.2 |
| C=O [methanal] + CCCCCCCC[N+](CCCCCCCC)(CCCCCCCC)CCCCCCCC.O=S(=O)([N-]S(=O)(=O)C(F)(F)F)C(F)(F)F | 0.07 | 0.08 | 0.09 ± 0.04 |
| CCO [ethanol] + CCCCCCCC[N+](CCCCCCCC)(CCCCCCCC)CCCCCCCC.O=S(=O)([N-]S(=O)(=O)C(F)(F)F)C(F)(F)F | 1.18 ± 0.04 | 1.12 ± 0.03 | 1.05 ± 0.03 |
| CCCCCCC [heptane] + CCCC[N+](C)(CCCC)CCCC.O=S(=O)([N-]S(=O)(=O)C(F)(F)F)C(F)(F)F | 8.88 ± 0.41 | 8.82 ± 0.4 | 8.34 ± 0.38 |
| Cc1ccccc1C [1,2-dimethylbenzene] + CCCC[N+](C)(CCCC)CCCC.O=S(=O)([N-]S(=O)(=O)C(F)(F)F)C(F)(F)F | 1.38 ± 0.05 | 1.46 ± 0.06 | 1.46 ± 0.06 |
| CC1CCCCC1 [methylcyclohexane] + CCCCCCCC[N+](CCCCCCCC)(CCCCCCCC)CCCCCCCC.O=S(=O)([N-]S(=O)(=O)C(F)(F)F)C(F)(F)F | 1.07 ± 0.03 | 1.06 ± 0.03 | 1.05 ± 0.03 |
| ClC(Cl)(Cl)Cl [tetrachloromethane] + CCCCCCCC[N+](C)(C)C.O=S(=O)([N-]S(=O)(=O)C(F)(F)F)C(F)(F)F | 1.63 ± 0.07 | 1.63 ± 0.07 | 1.6 ± 0.06 |
| ClCCl [dichloromethane] + CCCCCCCC[N+](CCCCCCCC)(CCCCCCCC)CCCCCCCC.O=S(=O)([N-]S(=O)(=O)C(F)(F)F)C(F)(F)F | 0.29 ± 0.04 | 0.3 ± 0.04 | 0.31 ± 0.04 |
| C=CCCCC [hex-1-ene] + CCCCCCCC[N+](CCCCCCCC)(CCCCCCCC)CCCCCCCC.O=S(=O)([N-]S(=O)(=O)C(F)(F)F)C(F)(F)F | 1.05 ± 0.03 | 1.05 ± 0.03 | 1.04 ± 0.03 |
| C#CCCCC [1-hexyne] + CCCCCCCC[N+](C)(C)C.O=S(=O)([N-]S(=O)(=O)C(F)(F)F)C(F)(F)F | 1.92 ± 0.08 | 1.89 ± 0.08 | 1.82 ± 0.08 |
| Cc1ccccc1 [toluene] + CCCCCCCC[N+](CCCCCCCC)(CCCCCCCC)CCCCCCCC.O=S(=O)([N-]S(=O)(=O)C(F)(F)F)C(F)(F)F | 0.47 ± 0.03 | 0.48 ± 0.03 | 0.49 ± 0.03 |
| CCC(C)CC [3-methylpentane] + CCCC[N+](C)(CCCC)CCCC.O=S(=O)([N-]S(=O)(=O)C(F)(F)F)C(F)(F)F | 6.1 ± 0.28 | 6.17 ± 0.28 | 5.86 ± 0.27 |
| CCCCCCCCCCCC [dodecane] + CCCC[N+](C)(CCCC)CCCC.O=S(=O)([N-]S(=O)(=O)C(F)(F)F)C(F)(F)F | 32.4 ± 1.5 | 31.3 ± 1.4 | 28.8 ± 1.3 |
| C1CCCCC1 [cyclohexane] + CCCCCCCC[N+](C)(C)C.O=S(=O)([N-]S(=O)(=O)C(F)(F)F)C(F)(F)F | 4.08 ± 0.19 | 3.84 ± 0.17 | 3.57 ± 0.16 |
| Cc1cccc(C)c1 [1,3-dimethylbenzene] + CCCCCCCC[N+](C)(C)C.O=S(=O)([N-]S(=O)(=O)C(F)(F)F)C(F)(F)F | 1.39 ± 0.05 | 1.39 ± 0.05 | 1.38 ± 0.05 |
| CCCCCCCCCCC [undecane] + CCCC[N+](C)(CCCC)CCCC.O=S(=O)([N-]S(=O)(=O)C(F)(F)F)C(F)(F)F | 25.7 ± 1.2 | 24.8 ± 1.1 | 22.8 ± 1.1 |
| CCC(=O)CC [pentan-3-one] + CCCCCCCCCC[N+](C)(C)C.O=S(=O)([N-]S(=O)(=O)C(F)(F)F)C(F)(F)F | 0.41 ± 0.03 | 0.43 ± 0.03 | 0.44 ± 0.03 |
| Cc1ccc(C)cc1 [1,4-dimethylbenzene] + CCCCCCCC[N+](CCCCCCCC)(CCCCCCCC)CCCCCCCC.O=S(=O)([N-]S(=O)(=O)C(F)(F)F)C(F)(F)F | – | 0.6 ± 0.03 | 0.62 ± 0.03 |
| CCC=O [propanal] + CCCCCCCCCC[N+](C)(C)C.O=S(=O)([N-]S(=O)(=O)C(F)(F)F)C(F)(F)F | 0.4 ± 0.03 | 0.42 ± 0.03 | 0.41 ± 0.03 |
| c1ccsc1 [thiophene] + CCCCCCCC[N+](CCCCCCCC)(CCCCCCCC)CCCCCCCC.O=S(=O)([N-]S(=O)(=O)C(F)(F)F)C(F)(F)F | 0.4 ± 0.03 | 0.4 ± 0.03 | 0.41 ± 0.03 |
